# Data from patent US5310729A, “Interferon-related polypeptides as CR2 ligands and their use for modulating immune cell functions” (California Institute of Biological Research, priority 1990, dated 1994).
# Ends that are not written are not given here.
# Experiments:
# CR2 = molecular target: T1, CR2 (Homo sapiens, UniProt P20023); assay: Inhibition of CR2 binding to rIFNα by competing polypeptides; details: competing polypeptide at 100ug/ml; rIFNα solid phase, CR2 liquid phase
# T1 construct: CR2 is isolated from Raji cells (ATTC CCL 86); endogenous in cells; host or cells: Raji cells (ATCC CCL 86)
# T1 sequence (P20023 21-1033): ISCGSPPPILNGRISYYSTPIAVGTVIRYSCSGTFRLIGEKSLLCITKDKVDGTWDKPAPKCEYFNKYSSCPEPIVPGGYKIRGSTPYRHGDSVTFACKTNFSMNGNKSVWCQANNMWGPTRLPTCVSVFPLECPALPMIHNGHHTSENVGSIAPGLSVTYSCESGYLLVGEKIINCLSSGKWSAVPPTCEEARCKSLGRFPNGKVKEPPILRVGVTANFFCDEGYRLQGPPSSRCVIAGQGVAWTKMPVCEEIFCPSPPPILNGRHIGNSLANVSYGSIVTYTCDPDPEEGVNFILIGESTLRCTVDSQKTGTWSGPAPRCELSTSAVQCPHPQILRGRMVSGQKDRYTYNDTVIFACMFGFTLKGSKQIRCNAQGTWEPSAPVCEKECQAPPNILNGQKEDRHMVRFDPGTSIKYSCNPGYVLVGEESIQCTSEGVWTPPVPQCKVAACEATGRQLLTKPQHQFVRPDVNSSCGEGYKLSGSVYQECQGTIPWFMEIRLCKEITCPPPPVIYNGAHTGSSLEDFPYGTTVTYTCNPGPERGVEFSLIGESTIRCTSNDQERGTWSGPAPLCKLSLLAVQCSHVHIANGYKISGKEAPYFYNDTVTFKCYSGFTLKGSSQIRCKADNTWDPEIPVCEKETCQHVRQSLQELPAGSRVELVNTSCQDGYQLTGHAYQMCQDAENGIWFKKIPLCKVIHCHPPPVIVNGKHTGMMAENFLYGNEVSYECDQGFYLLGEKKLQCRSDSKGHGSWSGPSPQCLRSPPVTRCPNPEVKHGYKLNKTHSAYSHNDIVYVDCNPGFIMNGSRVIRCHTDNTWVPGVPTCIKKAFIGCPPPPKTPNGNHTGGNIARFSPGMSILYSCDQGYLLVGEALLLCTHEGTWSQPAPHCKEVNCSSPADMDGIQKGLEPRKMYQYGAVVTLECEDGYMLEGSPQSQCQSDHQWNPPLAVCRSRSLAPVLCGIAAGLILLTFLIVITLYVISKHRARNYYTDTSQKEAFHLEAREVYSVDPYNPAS
# Protocol: A binding reaction admixture containing rIFNα in the solid phase and CR2 in the liquid phase was prepared as described in Example 3c except that a competing CR2 ligand shown in Table 6 was also included in the admixture at a concentration of 100ug/ml. Thereafter, the binding assay was conducted as described in Example 3c to measure the amount of CR2 specifically bound to rIFNα.
# [1] = molecular target: T2, native CR2 present on Raji cells (Homo sapiens, UniProt P20023); assay: Inhibition of Zymosan-C3 rosette formation in Raji cells; assay type: cell-based; details: 10^5 Raji cells; zero to 200 μg tested, amount for the value not stated
# T2 construct: native CR2 present on Raji cells; endogenous in cells; host or cells: Raji cells
# T2 sequence (P20023 21-1033): T1 sequence (P20023 21-1033)
# Protocol: Fresh blood was collected from a healthy donor, maintained at room temperature for 2 hours, centrifuged at 2000×g for about 10 min and the resulting supernatant collected. Five mg of Zymosan A particles (Sigma Chemical Co., St. Louis, Mo.) were boiled for 30 min in 20 ml of 150 mM NaCl and washed three times in phosphate-buffered saline (PBS) to form activated particles. One mg of activated particles was admixed with 0.5 ml of the collected blood supernatant, the admixture was maintained at 37° C. for 30 minutes, and then the particles were washed 3 times in PBS. The washed particles were re-suspended in PBS at a concentration of 0.5 mg/ml to form a C3-coated Zymosan composition.
# Cultures containing 10^5 Raji cells were admixed with 100 microliters (μl ) of culture medium containing varying amounts (zero to 200 μg) of C3 or IFNαA derived polypeptides (p7 and p2 prepared in Example 1) or rIFNα prepared in Example 3b and the admixture maintained at 37° C. for 30 minutes to allow the CR2 ligand polypeptides to bind any CR2 receptor present on the Raji cells. Thereafter, 50 μl of the C3-coated Zymosan composition were added to each cell culture. […] More than 3 rosettes per cell were counted as C3 specific binding. Inhibition is expressed as the percent decrease in bound rosettes when comparing binding in the presence or absence of admixed polypeptide.
# rIFNα = details: BSA added to the binding reaction admixture in place of CR2
# Protocol: Various amounts of affinity-purified recombinant IFNα(rIFNα) prepared in Example 3b was added to the wells of Falcon EIA plates in 50 μl of coupling buffer (100 mM NaHC03, pH 9.3) and maintained for 2 hours at 37° C. to allow the IFNα to absorb onto the walls of the wells. Subsequently, the wells were washed by 3-fold immersion in PBS containing Tween 20 at 0.05% (referred to as PBST) and then PBST was added to the wells and the wells were maintained for 1 hour at 37° C. as a saturation step. After the wash and saturation steps, twice-affinity-purified CR2, prepared as described in Example 2, was added to each well in about 50 ul of PBST to form a binding reaction admixture containing 50 nanograms (ng) the amount of CR2 per 50 ul. The admixture was maintained for 2 hours at 37° C. to allow the added CR2 in the liquid phase to specifically bind with the rIFNα present immobilized in the solid phase on the walls of the wells. The wells were then washed with PBST to remove unbound CR2. […] The formation of p-nitrophenol was determined by measuring optical absorbance at 405 nm in a Titertek ELISA reader (Titertek Multiskan MCC/340, Metea, Va.).
inhibition at 100 µg/mL (CR2),Percent Inhibition of Zymosan-C3 Rosette Formation in Raji Cells [1],Binding to solid-phase rIFNα (in words) (rIFNα),Substance
0%,–,–,"SPGRGD [p10, SPGRGD]"
50%,77%,–,"QLYNVEATS [p7, QLYNVEATS]"

# The remaining lines, values behind:
Substance,inhibition at 100 µg/mL (CR2),Percent Inhibition of Zymosan-C3 Rosette Formation in Raji Cells [1],Binding to solid-phase rIFNα (in words) (rIFNα)
"QLNDLEACV [p2, QLNDLEACV]",48%,55%,–
"QLNNLEACV [p4, QLNNLEACV]",45%,–,–
bovine serum albumin [BSA],–,–,no dose dependent binding
"QLNDMEACV [p6, QLNDMEACV]",0%,–,–
